Measured values taken from ChEMBL document CHEMBL1136040, “Specific accumulation and growth inhibitory effects of hybrid liposomes to hepatoma cells in vitro” (Bioorg Med Chem Lett, 2002).

Test system: HepG2
Test: Compound was tested for its inhibition on growth of human hepatoma cells (Hep-G2); No inhibitory effects was observed
Type: functional, cell-based

Row | SMILES | inhibition
1 | CCCCCCCCCCCCCC(=O)OCC(COP(=O)([O-])OCC[N+](C)(C)C)OC(=O)CCCCCCCCCCCNc1ccc([N+](=O)[O-])c2nonc12 (configuration not stated) | No inhibition
2 | CCCCCCCCCCCCCC(=O)OCC(COP(=O)([O-])OCC[N+](C)(C)C)OC(=O)CCCCCCCCCCCCC (configuration not stated) | No inhibition
